Assay results as given in US6215002A, “Pyrrolopyrrolone derivatives as inhibitors of neutrophil elastase” (priority 1996, dated 2001).

What was measured:
Intracellular elastase = test: Oral in vivo model using IL-8 induced lung infiltrates for the assessment of intracellular elastase inhibition (hamster test); conditions: effective dose of less than 40 mg/kg, IL-8 intratracheal
Summary of the method: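 Fasted adult hamsters (n=4) given compound orally in water, with intratracheal 1 ug recombinant human IL-8; sacrificed 6 h later. Neutrophils from lung lavage and femoral bone marrow sonicated, granules disrupted, and elastase measured, with myeloperoxidase used to normalise for neutrophil recovery.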

[1] = target: T1, human neutrophil elastase (Homo sapiens, UniProt P08246); test: In vitro assay of human neutrophil elastase (HNE); type: biochemical; conditions: 118 nM purified human neutrophil elastase, pH 8.6, 15 min incubation at 30° C., MeO-succinyl-alanyl-alanyl-prolyl-valyl-p-nitroanilide substrate; read-out: HNE IC50
T1 sequence (P08246 30-267): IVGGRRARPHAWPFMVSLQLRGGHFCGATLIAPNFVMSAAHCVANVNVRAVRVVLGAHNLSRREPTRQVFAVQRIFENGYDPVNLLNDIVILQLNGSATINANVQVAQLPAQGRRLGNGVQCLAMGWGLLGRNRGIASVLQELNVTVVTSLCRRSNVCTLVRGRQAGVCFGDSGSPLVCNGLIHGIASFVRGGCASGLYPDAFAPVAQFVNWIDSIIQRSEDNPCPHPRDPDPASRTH
Summary of the method: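 Residual activity was taken as the 10 min rate of absorbance rise at 405 nm after adding 0.6 mM MeO-succinyl-AAPV-p-nitroanilide. Curve fitting of activity against concentration gave IC50.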

| Structure (SMILES) | duration of effect (Intracellular elastase) | IC50 [1] |
| --- | --- | --- |
| CCC[C@H]1C(=O)N(S(C)(=O)=O)[C@H]2CCN(C(=O)CCN3CCCCC3)[C@H]12 (relative stereo) [Example 29, rel-(3R,3aR,6aS)-1-Methanesulfonyl-4-(3-piperidin-1-yl-propionyl)-3-propyl-hexahydro-pyrrolo[3,2-b]pyrrol-2-one] | at least 6 hours | 139 nM |
| CC(C)[C@H]1C(=O)N(S(C)(=O)=O)[C@H]2CCN(C(=O)/C=C/CN3C(C)CCC3C)[C@H]12.Cl (relative stereo) [Example 149, rel-(3R,3aR,6aS)-4-[4-(2,5-Dimethyl-pyrrolidin-1-yl)-but-2E-enoyl]-3-isopropyl-1-methanesulfonyl-hexahydro-pyrrolo[3,2-b]pyrrol-2-one hydrochloride] | at least 6 hours | 46 nM |
